Data published in paper PMC6923176, “High-Throughput Screening of a 2-Keto-L-Gulonic Acid-Producing Gluconobacter oxydans Strain Based on Related Dehydrogenases” (Frontiers in Bioengineering and Biotechnology, 2019).

Assays:
Test in all cases: NADH consumption, A340
Assay type in all cases: biochemical
Details in all cases: NAD(P)H-dependent reduction; co-substrate, pH and temperature of the Km series not given (unit definition: NADH, pH 7.0, 37 C)
[1] = target: T1, ANI-GLUD (2-KLG reductase, GLUD) (Aspergillus niger, UniProt A0A1D8RK43)
T1 construct: full length, synthetic gene without stop codon, BamHI/SalI in pET28a(+), His-tagged, E. coli BL21(DE3), Ni-NTA
T1 sequence (A0A1D8RK43 1-331): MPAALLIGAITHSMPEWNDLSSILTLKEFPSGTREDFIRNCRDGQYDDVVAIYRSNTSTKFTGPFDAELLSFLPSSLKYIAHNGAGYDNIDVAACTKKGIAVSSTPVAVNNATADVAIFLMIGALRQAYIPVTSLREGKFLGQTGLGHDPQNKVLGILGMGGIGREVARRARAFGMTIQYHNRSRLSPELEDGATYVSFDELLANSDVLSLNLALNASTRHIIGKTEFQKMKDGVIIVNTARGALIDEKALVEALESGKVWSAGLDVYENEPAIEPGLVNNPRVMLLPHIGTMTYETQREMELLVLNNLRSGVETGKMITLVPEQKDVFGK

[2] = target: T2, CFR-2KR (2-KLG reductase, 2kr) (Citrobacter freundii, UniProt A0A0P8I5D5)
T2 construct: gene ghrB; full length, His-tagged from pET28a(+), EcoRI/SalI, E. coli BL21(DE3), Ni-NTA
T2 sequence (A0A0P8I5D5 1-324): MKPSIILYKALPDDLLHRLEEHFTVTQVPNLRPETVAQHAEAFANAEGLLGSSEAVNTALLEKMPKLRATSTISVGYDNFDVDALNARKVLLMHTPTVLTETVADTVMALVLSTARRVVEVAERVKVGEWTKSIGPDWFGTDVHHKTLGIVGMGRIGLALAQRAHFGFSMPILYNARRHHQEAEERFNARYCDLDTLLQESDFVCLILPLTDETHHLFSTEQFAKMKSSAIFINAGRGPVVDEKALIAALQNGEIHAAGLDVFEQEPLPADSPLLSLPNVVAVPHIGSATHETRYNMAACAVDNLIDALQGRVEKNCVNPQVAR

[3] = target: T3, ANI-2KR (2-KLG reductase, 2kr) (Aspergillus niger, UniProt A2Q988)
T3 construct: gene An01g07030; full length, synthetic gene without stop codon, BamHI/SalI in pET28a(+), His-tagged, E. coli BL21(DE3), Ni-NTA
T3 sequence (A2Q988 1-339): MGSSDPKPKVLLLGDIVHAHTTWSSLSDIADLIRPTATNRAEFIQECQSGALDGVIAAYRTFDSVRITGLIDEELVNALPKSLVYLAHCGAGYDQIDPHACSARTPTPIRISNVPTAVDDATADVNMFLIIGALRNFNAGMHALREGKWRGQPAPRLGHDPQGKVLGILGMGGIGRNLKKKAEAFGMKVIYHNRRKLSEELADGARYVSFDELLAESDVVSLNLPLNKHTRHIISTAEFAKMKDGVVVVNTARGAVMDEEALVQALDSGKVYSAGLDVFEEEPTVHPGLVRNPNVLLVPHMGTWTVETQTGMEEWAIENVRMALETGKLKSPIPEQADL

Measured: Km

O=C(O)C(=O)[C@@H](O)[C@H](O)[C@@H](O)CO [2-KLG, 2-keto-L-gulonic acid]
Km and Vmax values for 2-KLG reductases: all assays above
